{"source": "paper PMC7782499", "about": "“Progerinin, an optimized progerin-lamin A binding inhibitor, ameliorates premature senescence phenotypes of Hutchinson-Gilford progeria syndrome” (Communications Biology, 2021)", "key": {"[1]": {"test": "Plasma protein binding, human", "type": "in vitro ADME", "conditions": "human, plasma", "method": "At pre-set time-points, blood concentration of JH4 was determined by LC-MS/MS analysis[22],[23]. Other chemicals were also tested using similar protocol. In vitro ADME studies (plasma protein binding, CYP inhibition, microsomal stability, plasma stability, and hERG inhibition) were performed by New Drug Development Center (Daegu, Korea) using standard protocols[24],[25]."}, "[2]": {"tested_on": "Lmna G609G/G609G mouse", "test": "Life span of Lmna G609G/G609G progeria model mice", "type": "in vivo", "conditions": "i.p. 20 mg/kg twice a week from 5 weeks old", "source_text": "Fig. 3 In vivo favorable effect of SLC-D011. A Gross morphology of Lmna^G609G/G609G mice (10 weeks old) was ameliorated after injection with SLC-D011. At the same age, the experimental group (D011) of mice were larger than vehicle-injected control (Con) subjects regardless of gender. B, C SLC-D011 increases body weight B and extends life span C of Lmna^G609G/G609G progeria model mouse (Con: n = 8; SLC-D011: n = 8). Compared with 14.8 weeks of average (ave) life span with maximum (max) life span of 15.5 weeks, 20 mg/kg of intraperitoneal (i.p) injection (twice a week) of SLC-D011 could extend the life span upto 19 weeks (max = 21 weeks). Lmna^G609G/G609G mice were injected with SLC-D011 from age of 5-week old, *p < 0.05. D Gross morphology of SLC-D011 injected Lmna^G609G/+ mouse. […] E SLC-D011 increases body weights of Lmna^G609G/+ mice (Con: n = 10; SLC-D011: n = 11), *p < 0.05. F Favorable effect of SLC-D011 on life span of Lmna^G609G/+ mice. […] Only the axis reads Age (weeks).\nFig. 4 Oral administration of SLC-D011 suppresses premature aging features. […] H Anti-aging effects of single treatment of SLC-D011 or lonafarnib were measured in HGPS patients-derived cells (AG11513, AG03199, AG11498, and AG03198, Coriell Cell Repositories). […]"}}}
{"smiles": "CC1(C)Oc2cc3oc(=O)ccc3cc2C[C@@H]1OC/C=C/c1ccccc1", "note": "[SLC-D011]", "values": [{"measurement": "fraction unbound", "setting": "[1]", "result": 0.001}, {"measurement": "Maximum life span", "setting": "[2]", "result": 21, "unit": "weeks"}]}
